Experimental data from patent publication US6057314A, “Low molecular weight bicyclic thrombin inhibitors” (Biochem Pharma Inc., priority 1997, dated 2000).
pIC50, pKi: −log10 of the molar value. Where two headings read alike, the source gives them in different places.

How the values were obtained:
human thrombin [1] = biological target: T1, human thrombin (Homo sapiens, UniProt P00734); experiment: dTT assay (fibrin clotting assay, human thrombin and bovine fibrinogen); assay type: biochemical; settings: concentration required to double the clotting time
Description: The clotting time was plotted against the inhibitor concentrations and the IC50 was estimated as the inhibitor concentration required to double the clotting time relative to the control.

human thrombin [2] = biological target: T1, human thrombin; experiment: Inhibition of amidolytic activity of human thrombin (Ki, fluorogenic substrate Tos-Gly-Pro-Arg-AMC); assay type: biochemical
Description: In an assay to determine the inhibitory dissociation constant, Ki, for a given compound, a chromogenic or fluorogenic substrate of thrombin would be added to a solution containing a test compound and thrombin; the resulting catalytic activity of the enzyme would be spectrophotometrically determined. This type of assay is well known to those skilled in the art.
Determination of K1 Values for Heterocyclics
The steady-state velocity was then measured for a few minutes. The compounds of this invention were also pre-incubated with thrombin for 20 minutes at room temperature before adding the substrate.

human thrombin [3] = biological target: T1, human thrombin; experiment: Fibrin clot assay (human plasma, turbidity); assay type: biochemical; settings: Table 1, 1 nM thrombin, at 30 minutes
Description: The fibrin clot assay was performed essentially as described by Krtenansky et al, FEBS, 1987, 211:10. A serial dilution of the inhibitor was prepared in 50 mM tri HCl buffer (pH 7.8 at 23° C.) containing 0.1 M NaCl and 0.1% (w/v) polyethylene glycol 8000. Human plasma (60 μL, collected in 3.8% sodium citrate, blood/anticoagulate 9:1) was added to microtiter wells (microtiter plate, Falcon) containing 100 μL of various inhibitor dilutions. The solution was mixed after which 50 μL of human thrombin (1 nM final conc.) was added and mixed for 15 seconds. The turbidity of the clot was immediately monitored by microplate autoreader (Dynateck MR 5000) at 405 nm and recorded every 3 min. The maximal turbidity in the absence of inhibitors was reached within 60 min. IC50 values were calculated at 30 minutes as the inhibitor concentration that gave half the optical density of the control.

[4] = tested on: washed platelets from rats; experiment: Platelet secretion (14C-serotonin, 5-HT, release from washed rat platelets, thrombin stimulated); assay type: cell-based; settings: Table 1, human thrombin 0.1 IU/mL, read-out: Antiplatelet activity, 5-HT Secretion (IC50)
Description: Platelet Aggregation and Secretion Rat blood was collected into ACD (6/1 v/v) by cardiac puncture. Suspensions of washed platelets were prepared as described by […] et al, (Br. J. Haematol. 1970, 19:7 and Proc. Soc. Exp. Biol. Med. 1971, 136:1021). […] Platelet counts were adjusted to 5000,000/ μL. To permit measurement of the extent of release of the contents of the dense granules, the platelets were labelled in the first washing solution with ^14 C-serotonin (5-HT) (1 μCi/10 mL of washing fluid) and release of ^14 C-serotonin was determined as described in Holmsen et al, (Enzymology, 1989, 169:206). […] (5 μM final conc.) was added to present the reuptake of released serotonin. Platelet aggregation was recorded at 37° C. in an aggregometer (BioData PAP-4) at a stirring speed of 1,100 rpm by measuring the variations of light transmission. […] IC50 values represent the concentration that was necessary to inhibit platelet aggregation or secretion to 50% of the control.

[5] = tested on: washed platelets from rats; experiment: Platelet aggregation (washed rat platelets, thrombin stimulated); assay type: cell-based; settings: Table 1, suspension of washed platelets from rats, human thrombin 0.1 IU/mL, read-out: Antiplatelet activity, Aggregation (IC50)
Description: Platelet Aggregation and Secretion Rat blood was collected into ACD (6/1 v/v) by cardiac puncture. Suspensions of washed platelets were prepared as described by […] et al, (Br. J. Haematol. 1970, 19:7 and Proc. Soc. Exp. Biol. Med. 1971, 136:1021). […] Platelet counts were adjusted to 5000,000/ μL. Platelet aggregation was recorded at 37° C. in an aggregometer (BioData PAP-4) at a stirring speed of 1,100 rpm by measuring the variations of light transmission. […] IC50 values represent the concentration that was necessary to inhibit platelet aggregation or secretion to 50% of the control.

carotid artery in rats = experiment: FeCl3 induced carotid arterial injury model (arterial thrombosis) in rats, time to occlusion; assay type: in vivo, rat (Sprague-Dawley); settings: Table 2
Description: Arterial Thrombosis Model
FeCl3 Induced Carotid Arterial Injury Model
Animals were laid on a 37° C. heating pad. The carotid artery was exposed through a midline cervical incision. Careful blunt dissection was used to isolate the vessel from the carotid sheath. […] A temperature probe (Physitemp*MT23/3) was placed between one of the pieces of tubing and the artery. Injury was induced by topical application on the carotid artery above the temperature probe of a small disc (3 mm dia.) of Whatman* No. 1 filter paper previously dipped in a 35% solution of FeCl3 […]. The vessel temperature was monitored for 60 minutes after application of FeCl3 as an indication of blood flow.
The time between the FeCl3 application and the time at which the vessel temperature decreased abruptly (>2.4° C.) was recorded as the time to occlusion of the vessel. Inhibitor compounds were given as an iv bolus (mg/kg) followed immediately by an iv infusion (μg/kg/min. via femoral vein). The dose of inhibitor needed to double the time to occlusion in comparison to control animals in which injury was induced in the absence of inhibitor was determined.

[6] = Table 1, read-out: Ki (inhibitory dissociation constant for human thrombin)

Row | Compound | pIC50 (human thrombin [1]; Table 1, read-out: dTT IC50) | pKi (human thrombin [2]; [6]) | pIC50 (human thrombin [3]) | pIC50 [4] | pIC50 [5] | pIC50 (human thrombin [1]; Table 2, read-out: dTT) | pKi (human thrombin [2]; Table 2, read-out: Ki) | M.O.T (min)+/-sem (carotid artery in rats; ivb + inf 0.5-30 (iv bolus mg/kg, infusion μg/kg/min)) | M.O.T (min)+/-sem (carotid artery in rats; ivb + inf 0.75-50 (iv bolus mg/kg, infusion μg/kg/min))
1 | CCCC(=O)C(CCCNC(=N)N)NC(=O)[C@@H]1CSC2CC[C@@H](Cc3ccccc3)C(=O)N21 (stereo partly drawn) [Compound 0005, 6S-benzylhexahydro-5-oxo-5H-thiazolo[3,2-a]pyridine-3R-carboxamido (propyl ketoarginine)] | 4.33 | 5.40 | < 3.35 | – | – | – | – | – | –
2 | CCCCC(=O)C(CCCNC(=N)N)NC(=O)[C@@H]1CSC2CC[C@@H](Cc3ccccc3)C(=O)N21 (stereo partly drawn) [Compound 0010, 6S-benzylhexahydro-5-oxo-5H-thiazolo[3,2-a]pyridine-3R-carboxamido (butyl ketoarginine)] | 4.05 | 5.34 | < 3.35 | 4.72 | 4.68 | – | – | – | –
3 | COC(=O)CCC(=O)C(CCCNC(=N)N)NC(=O)[C@@H]1CSC2CC[C@@H](Cc3ccccc3)C(=O)N21 (stereo partly drawn) [Compound 0015, 6S-benzylhexahydro-5-oxo-5H-thiazolo[3,2-a]pyridine-3R-carboxamido(propylcarbmethoxyketoarginine)] | 3.79 | 4.80 | < 3.35 | < 4.00 | < 4.00 | – | – | – | –
4 | N=C(N)NCCCC(NC(=O)[C@@H]1CSC2CC[C@@H](CC3CCCCC3)C(=O)N21)C(=O)Cc1ccccc1 (stereo partly drawn) [Compound 0020, 6S-cyclohexymethyl hexahydro-5-oxo-5H-thiazolo[3,2-a]pyridine-3R-carboxamido(benzylketoarginine)] | 4.66 | 5.66 | < 3.35 | 4.85 | 4.74 | – | – | – | –
5 | COC(=O)CCC1(C(CCCNC(=N)N)NC(=O)[C@@H]2CSC3CC[C@@H](CC4CCCCC4)C(=O)N32)SCCS1 (stereo partly drawn) [Compound 0025, 6S-cyclohexyl methyl hexahydro-5-oxo-5H-thiazolo[3,2-a]pyridine-3R-carboxamido(carbmethoxypropylcyclodithioketalarginine)] | < 3.20 | 4.28 | < 3.35 | < 4.00 | < 4.00 | – | – | – | –
6 | N=C(N)NCCC[C@H](NC(=O)[C@@H]1CSC2CC[C@@H](CC3CCCCC3)C(=O)N21)C(=O)N1CCCC[C@@H]1C(=O)O (stereo partly drawn) [Compound 0030, 6S-cyclohexylmethyl hexahydro-5-oxo-5H-thiazolo[3,2-a]pyridine-3R-carboxamido((S)-Arg-(R)-pipecolilic acid)] | 4.17 | 5.07 | 3.49 | < 4.00 | < 4.00 | – | – | – | –
7 | N=C(N)NCCCC(NC(=O)[C@@H]1CSC2CC[C@@H](Cc3ccccc3)C(=O)N21)C1(CCC(N)=O)SCCS1 (stereo partly drawn) [Compound 0035, 6S-benzylhexahydro-5-oxo-5H-thiazolo[3,2-a]pyridine-3R-carboxamido(carboxamidopropylcyclodithioketalarginine)] | 3.50 | 4.47 | < 3.35 | < 4.00 | < 4.00 | – | – | – | –
8 | N=C(N)NCCC[C@H](NC(=O)[C@@H]1CSC2CC[C@@H](CC3CCCCC3)C(=O)N21)C(=O)N1CCCC(C(N)=O)C1 (stereo partly drawn) [Compound 0040, 6S-cyclohexylmethylhexahydro-5-oxo-5H-thiazolo[3,2-a]pyridine-3R-carboxamido((S)-Argnipecotamide)] | 3.68 | 4.72 | < 3.35 | < 4.00 | < 4.00 | – | – | – | –
9 | N=C(N)NCCC[C@H](NC(=O)[C@@H]1CSC2CC[C@@H](CC3CCCCC3)C(=O)N21)C(=O)N1CCC(C(N)=O)CC1 (stereo partly drawn) [Compound 0045, 6S-cyclohexylmethylhexahydro-5-oxo-5H-thiazolo[3,2-a]pyridine-3R-carboxamido((S)Argisonipecotamide)] | 3.38 | 4.13 | < 3.35 | – | – | – | – | – | –
10 | N=C(N)NCCCC(NC(=O)[C@@H]1CSC2CC[C@@H](Cc3ccccc3)C(=O)N21)C1(CCCCC(N)=O)SCCS1 (stereo partly drawn) [Compound 0050, 6S-benzylhexahydro-5-oxo-5H-thiazolo[3,2-a]pyridine-3R-carboxamido(carboxamidopentylcyclodithioketalarginine)] | – | 4.21 | < 3.35 | – | – | – | – | – | –
11 | N=C(N)NCCCC(NC(=O)[C@@H]1CSC2CC[C@@H](CC3CCCCC3)C(=O)N21)C(=O)CSCC(=O)O (stereo partly drawn) [Compound 0065, 6S-cyclohexylmethylhexahydro-5-oxo-5H-thiazolo[3,2-a]pyridine-3R-carboxamido(1-carboxy-3-thiobutylketoarginine)] | 4.38 | 4.49 | 3.70 | 4.28 | 4.32 | – | – | – | –
12 | CC(SCC(=O)C(CCCNC(=N)N)NC(=O)[C@@H]1CSC2CC[C@@H](CC3CCCCC3)C(=O)N21)C(=O)O (stereo partly drawn) [Compound 0070, 6S-cyclohexylmethylhexahydro-5-oxo-5H-thiazolo[3,2-a]pyridine-3R-carboxamido(1-carboxy-2-methyl-3-thiobutylketoarginine)] | 4.60 | 5.36 | 4.11 | 5.68 | 4.66 | – | – | – | –
13 | N=C(N)NCCCC(NC(=O)[C@@H]1CSC2CC[C@@H](CC3CCCCC3)C(=O)N21)C(=O)C[n+]1ccc2ccccc2c1 (stereo partly drawn) [Compound 0080, 6S-cyclohexylmethylhexahydro-5-oxo-5H-thiazolo[3,2-a]pyridine-3R-carboxamido(iso-quinoliniummethylketoarginine)] | 6.43 | 7.32 | – | 6.42 | 6.40 | – | – | – | –
14 | N=C(N)NCCCC(NC(=O)[C@@H]1CC[C@H]2CN(C(=O)c3ccccc3)CC(=O)N21)C(=O)c1nccs1 (stereo partly shown) [Compound 0335, 2-Benzoyl-4-oxo-octahydro-pyrrolo[1,2-a]pyrazine-6-carboxylic acid[4-guanidino-1-(thiazole-2-carbonyl)-butyl]-amide] | – | – | – | – | – | 6.86 | 7.60 | 41.5 ± 7.27 min | 45.8 ± 14.2 min
